# Measurements published in US20220002288A1, “MONOBACTAM COMPOUNDS AND USE THEREFOR” (priority 2018, published 2022).
# Structures can show the parent of a compound that is named as a salt. Where two headings read alike, the source gives them in different places.
# Experiments:
# Escherichia coli = experiment: In vitro antibacterial activity, minimum inhibitory concentration (MIC); format: cell-based; settings: strain CLB30048, read-out: MIC
# Protocol: (§1) Compounds: The compounds prepared in the above examples and comparative examples. All test compounds were dissolved and diluted with DMSO, and the final concentrations were prepared as 64, 32, 16, 8, 4, 2, 1, 0.5, 0.25, 0.125, 0.0625 μg/mL in the experiment.
# (§2) Bacterial strains: 6 strains of Acinetobacter baumannii (codenames: HDBAB-YK4, HDBAB-YK7, HDBAB-YK12, HDBAB-YK16, HDBAB_OXA_7, ATCC 19606), 2 strains of Pseudomonas aeruginosa (codenames: HDBPA-YK9, HDBPA)-YK15), 1 strain of Escherichia coli (codename: CLB30048), all provided by HD Biosciences (Shanghai) Co., Ltd.
# (§3) Medium: Trypticase soy agar (TSA) (BD BBL 211043), and Cation-adjusted Mueller Hinton broth (CAMHB) (BD BBL212322).
# (§4) The bacteria used for the minimum inhibitory concentration (MIC) test were stored frozen at −80° C., and needed 2 days to recover before use. A small amount of frozen bacteria was scraped with a sterile inoculation loop for streak inoculation on a TSA solid medium petri dish. The dish was placed in an ordinary incubator at 35±2° C. for 20-24 hours. 5-10 Colonies with similar morphologies were picked from the above-mentioned petri dish with a sterile inoculating loop for streak inoculation again on a TSA solid medium petri dish. The dish was then placed in an ordinary incubator at 35±2° C. for 20-24 hours.
# (§5) 1.02×CAMHB liquid medium was taken out from a 4° C. refrigerator and placed at room temperature for preheating. 5-10 Individual bacterial colonies were picked from the solid petri dish of the above Section 2.1 and re-suspended in 500 μL of 0.9% NaCl, and then the OD600 was adjusted to 0.1-0.15 with a spectrophotometer. Then the bacteria were diluted 400 times with 1.02×CAMHB (two-step dilution method: firstly diluting 10 times, then diluting 40 times).
# (§6) The number of inoculated bacteria can be obtained by counting the colonies on the petri dish (see Section 2.4).
# (§7) One compound was arranged in each row of a 96-well test plate: the highest test concentration for each compound was 64 μg/mL, which was diluted by a factor of two.
# (§8) Growth control (GC): 1.02×CAMHB and dimethyl sulfoxide (DMSO) containing bacterial inoculum, no compound.
# (§9) Sterile control (SC): Containing 1.02×CAMHB and DMSO, no compound.
# (§10) All test compounds were dissolved and diluted with DMSO. 50 μL of 3.2 mg/mL of each test compound was transferred to the initial well (A1-H1) of the dilution plate, and then 25 μL of DMSO was transferred to other wells. The test compounds were sequentially diluted by a factor of 2 from column 1 to column 11 (i.e. drawing 25 μL of test compound from column 1 to column 2 and mixing well, and then drawing 25 μL of test compound from column 2 to column 3 and mixing well, and then drawing 25 μL of test compound from column 3 to column 4 and mixing well, and so on, until diluting to column 11).
# (§11) 2 μL of the compound was transferred from the compound plate to the corresponding well of the test plate. Meanwhile, 2 μL of 100% DMSO was transferred to the compound-free wells (the GC and SC wells).
# (§12) 98 μL of the corresponding bacterial inoculum was added to the test plate (except for the SC well).
# (§13) 98 μL of 1.02×CAMHB medium was added to the SC well of the test plate.
# (§14) After the system was added, the test plate was covered with a sterile lid, centrifuged at 800 rpm for 30 seconds, then shaken on a plate shaker at 400 rpm for 1 minute for mixing well, and then placed in an incubator at 35±2° C. for 20 hours.
# (§15) The inoculated bacteria were gradient diluted by 10 folds with the liquid medium, from 10^−1 to 10^−3. 100 μL of the above bacterial dilution was spread evenly on a TSA petri dish, 2 replicates for each dilution. After the medium was absorbed by TSA for 10 minutes, the petri dishes were reversed and incubated in an incubator at 35±2° C. for 24 hours.
# (§16) A compound management system was turned on to check whether the barcode and compound arrangement of each test plate were correct. […]
# Acinetobacter baumannii = experiment: as above; format: cell-based
# Protocol: as §1, §2, §3, §4, §5, §6, §7, §8, §9, §10, §11, §12, §13, §14, §15, §16
# Pseudomonas aeruginosa = experiment: as above; format: cell-based
# Protocol: as §1, §2, §3, §4, §5, §6, §7, §8, §9, §10, §11, §12, §13, §14, §15, §16
# [1] = Pharmacokinetics of the compounds in mice; format: in vivo, BALB/c mice; settings: mouse, plasma, male BALB/c mice, single intravenous dose 2 mg/kg, plasma; for Vd: male, BALB/c, iv, 2 mg/kg
# From the text: Animals: male BALB/c mice, SPF grade, purchased from Changzhou Cavens Experimental Animal Co., Ltd.; 16-24 g, license number: SCXK (Su)2016-0010; 2 to 3 days of adaptation period were given before the experiment.
# Instruments: API 4500 High Performance Liquid Chromatograph Coupled Triple Quadrupole Mass Spectrometer, and Analyst QS A01.01 Chromatography Workstation were both purchased from AB SCIEX of the United States; Milli-Q ultrapure water device was purchased from Millipore; CF16R XII desktop high-speed refrigerated centrifuge was purchased From Hitachi Company; Qilinbeier Vortex-5 oscillator was purchased from IKA Company of German; electric heating constant-temperature water bath was purchased from Changzhou Guohua Electric Appliance Co., Ltd.; electric pipette was purchased from Thermo Company of American; and microanalysis balance was purchased from Shanghai Mettler Co., Ltd.
# 2 mg of the test compound was weighed, added to physiological saline, vortexed for 2 min, and ultrasonicated for 3 min, to prepare a test solution with a concentration of 0.2 mg/mL for intravenous administration.
# A single dose of 2 mg/kg of the test compound was administered to BALB/c mice via the tail vein, the dose volume being 0.1 mL/10 g. At 5 min, 15 min, 30 min, 1 h, 2 h, 4 h after administration, blood samples were collected from the orbital venous plexus into heparinized EP tubes (0.6 mL), which were temporarily placed on crushed ice.
# The samples were centrifuged at 8000 rpm for 5 min. 15 μL of upper plasma were transferred to a 96-well plate. 150 μL of methanol:acetonitrile (v/v=1:1) (containing 20 ng/mL tolbutamide) was added to 15 μL of plasma, shaken for 3 min, and centrifuged at 4500 rpm for 5 min. 100 μL of supernatant was taken to a 2 mL deep well plate. 100 μL of diluent (pure water) was added. The samples were shaken for 3 min, and centrifuged at 4500 rpm for 5 min. 180 μL of the supernatant was transferred to the sample plate. The content of the compound in the supernatant sample was analyzed by LC-MS/MS, and various pharmacokinetic parameters were calculated with WinNonlin software.
Structure (SMILES),MIC (Escherichia coli) [mg/L],"MIC (Acinetobacter baumannii; ATCC19606, strain ATCC 19606) [mg/L]",MIC (Acinetobacter baumannii; strain HDBAB-YK4) [mg/L],MIC (Acinetobacter baumannii; strain HDBAB-YK7) [mg/L],MIC (Acinetobacter baumannii; strain HDBAB-YK12) [mg/L],MIC (Acinetobacter baumannii; strain HDBAB-YK16) [mg/L],MIC (Acinetobacter baumannii; strain HDBAB_OXA_7) [mg/L],MIC (Pseudomonas aeruginosa; strain HDBPA-YK9) [mg/L],MIC (Pseudomonas aeruginosa; strain HDBPA-YK15) [mg/L],Vd ([1]; read-out: VSS) [L/kg],Vd ([1]; read-out: Vd) [L/kg],AUC(0-inf) [1] [µg·h/mL],AUC(0-t) [1] [µg·h/mL],C0 [1] [µg/mL],clearance [1] [L/h/kg],half-life [1] [min]
"C[n+]1cc(-c2ccc(OC[C@H](O/N=C(\C(=O)N[C@@H]3C(=O)N(OS(=O)(=O)[O-])C3(C)C)c3csc(N)n3)C(=O)O)cc2)ccc1NC(=O)[C@@H](N)CCCCN [Example 4, (S)-3-((Z)-2-(2-aminothiazol-4-yl)-2-(((S)-1-carboxy-2-(4-(6-((S)-2,6-diaminohexanamido)-1-methylpyridin-1-ium-3-yl)phenoxy)ethoxy)imino)acetylamino)-2,2-dimethyl-4-oxoazetidin-1-yl Sulfate]",8,2,2,2,4,32,16,16,> 64,0.73,0.88,0.813,0.751,3.01,2.57,13.8
"CC1(C)[C@H](NC(=O)/C(=N\O[C@@H](COc2ccc(-c3ccc(NC(=O)[C@@H](N)CCCCN)nc3)cc2)C(=O)O)c2csc(N)n2)C(=O)N1OS(=O)(=O)O [Example 5, (S)-2-((((Z)-1-(2-aminothiazol-4-yl)-2-(((S)-2,2-dimethyl-4-oxo-1-(sulfonyloxy)azetidin-3-yl)amino)-2-oxoethylene)amino)oxy)-3-(4-(6-((S)-2,6-diaminohexanamido)pyridin-3-yl)phenoxy)propionic Acid]",8,8,32,> 64,4,64,16,32,> 64,,,,,,,
C[n+]1cc(-c2ccc(OC[C@H](O/N=C(\C(=O)N[C@@H]3C(=O)N(OS(=O)(=O)[O-])C3(C)C)c3csc(N)n3)C(=O)O)cc2)ccc1NC(=O)[C@@H](N)CO [Example 6],32,64,32,64,4,> 64,32,64,> 64,,,,,,,
CC1(C)[C@H](NC(=O)/C(=N\O[C@@H](COc2ccc(-c3ccc(NC(=O)[C@@H](N)CO)nc3)cc2)C(=O)O)c2csc(N)n2)C(=O)N1OS(=O)(=O)O [Example 7],64,64,> 64,> 64,16,> 64,> 64,32,> 64,,,,,,,
C[n+]1cc(-c2ccc(OC[C@H](O/N=C(\C(=O)N[C@@H]3C(=O)N(OS(=O)(=O)[O-])C3(C)C)c3csc(N)n3)C(=O)O)cc2)ccc1NC(=O)[C@H](N)CCCCN [Example 8],8,2,4,1,2,16,8,16,> 64,,,,,,,
"CC1(C)[C@H](NC(=O)/C(=N\O[C@@H](CCCOc2ccc(-c3cn(CCCN)[n+](CC4CNC4)c3)cc2)C(=O)O)c2csc(N)n2)C(=O)N1OS(=O)(=O)[O-] [Example 10, (S)-3-((Z)-2-(((S)-4-(4-(1-(3-aminopropyl)-2-(azetidin-3-ylmethyl)-1H-pyrazol-2-ium-4-yl)phenoxy)-1-carboxybutoxy)imino)-2-(2-aminothiazol-4-yl)acetylamino)-2,2-dimethyl-4-oxoazetidin-1-yl Sulfate]",1,4,8,0.5,8,16,8,8,32,,,,,,,
"CC1(C)[C@H](NC(=O)/C(=N\O[C@@H](COc2ccc(-c3ccc4[nH]c(CN)nc4c3)cc2)C(=O)O)c2csc(N)n2)C(=O)N1OS(=O)(=O)O [Example 11, (S)-3-(4-(2-(aminomethyl)-1H-benzo[d]imidazol-5-yl)phenoxy)-2-((((Z)-1-(2-aminothiazol-4-yl)-2-(((S)-2,2-dimethyl-4-oxo-1-(sulfonyloxy)azetidin-3-yl)amino)-2-oxoethylene)amino)oxy)propionic Acid]",32,> 64,> 64,> 64,16,> 64,> 64,32,> 64,,,,,,,
